We go through 22 compounds from patent publication US20230391760A1, “HETEROCYCLIC GLP-1 AGONISTS” (Gasherbrum Bio, Inc., priority 2020, published 2023).

The structures appear in SMILES notation.

GLP-1 Receptor, sequence (P43220 24-463, species assumed): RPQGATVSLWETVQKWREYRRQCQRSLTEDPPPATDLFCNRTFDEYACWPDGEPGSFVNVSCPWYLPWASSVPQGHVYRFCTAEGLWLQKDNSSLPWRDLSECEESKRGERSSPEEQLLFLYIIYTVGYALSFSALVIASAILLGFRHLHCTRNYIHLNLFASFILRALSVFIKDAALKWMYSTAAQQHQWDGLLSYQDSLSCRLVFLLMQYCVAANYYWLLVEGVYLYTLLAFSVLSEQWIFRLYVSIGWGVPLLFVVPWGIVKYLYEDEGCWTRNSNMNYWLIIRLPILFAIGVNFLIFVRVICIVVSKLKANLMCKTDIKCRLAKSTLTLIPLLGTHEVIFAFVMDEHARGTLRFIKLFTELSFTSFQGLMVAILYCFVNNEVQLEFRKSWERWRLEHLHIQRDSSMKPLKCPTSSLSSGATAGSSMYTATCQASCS

The target of this experiment is GLP-1 Receptor (Homo sapiens, UniProt P43220). As to the kind of experiment: GLP-1R agonist cAMP stimulation assay (HEK293/GLP1R/CRE-LUC cells, cAMP dynamic 2 Kit). Format: cell-based. The settings on record: HEK293/CRE-Luc cell line stably expressing the GLP-1 Receptor, 30 min at 37° C. The method, boiled down:
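HEK293 cells stably expressing human GLP-1R with CRE-luciferase, 1000 cells/well in DPBS with 0.5 mM IBMX and 0.1% BSA, treated with compound in 1/2-log serial dilution for 30 min at 37 °C. cAMP then detected by HTRF (cAMP-d2 plus anti-cAMP cryptate), 1 h at room temperature in the dark.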
In turn, `C[C@]1(c2ccc(Cl)cc2F)Oc2cccc(C3CCN(Cc4nc5cc(-c6nnc(C#N)[nH]6)nnc5n4C[C@@H]4CCO4)CC3)c2O1` [Compound 448a, 5-[6-({4-[(2S)-2-(4-chloro-2-fluorophenyl)-2-methyl-2H-1,3-benzodioxol-4-yl]piperidin-1-yl}methyl)-7-{[(2S)-oxetan-2-yl]methyl}-7H-imidazo[4,5-c]pyridazin-3-yl]-4H-1,2,4-triazole-3-carbonitrile] had an EC50 of 0.011 nM.
In the case of `Fc1cc(Cl)ccc1COc1cccc(C2CCN(Cc3nc4cc(-c5nnn[nH]5)ccc4n3C[C@@H]3CCO3)CC2)n1` [Compound 125a, 2-[(4-{6-[(4-chloro-2-fluorophenyl)methoxy]pyridin-2-yl}piperidin-1-yl)methyl]-1-{[(2S)-oxetan-2-yl]methyl}-5-(1H-1,2,3,4-tetrazol-5-yl)-1H-1,3-benzodiazole] it was 0.056 nM; in that of `Cc1nnc(-c2cnc3c(c2)nc(CN2CCC(c4cccc5c4O[C@@](C)(c4ccc(Cl)cc4F)O5)CC2)n3C[C@@H]2CCO2)[nH]1` [Compound 292a, 4-[(2S)-2-(4-chloro-2-fluorophenyl)-2-methyl-2H-1,3-benzodioxol-4-yl]-1-{[6-(5-methyl-4H-1,2,4-triazol-3-yl)-3-{[(2S)-oxetan-2-yl]methyl}-3H-imidazo[4,5-b]pyridin-2-yl]methyl}piperidine], 0.1 nM; in that of `C[C@]1(c2ccc(Cl)cn2)Oc2cccc(C3CCN(Cc4nc5cc(C(=O)O)nnc5n4C[C@@H]4CCO4)CC3)c2O1` [Compound 464a, 6-({4-[(2S)-2-(5-chloropyridin-2-yl)-2-methyl-2H-1,3-benzodioxol-4-yl]piperidin-1-yl}methyl)-7-{[(2S)-oxetan-2-yl]methyl}-7H-imidazo[4,5-c]pyridazine-3-carboxylic acid], 0.76 nM.
`Fc1cc(Cl)ccc1COc1nc(N2CCN(Cc3nc4cc(-c5nnc(C(F)(F)F)[nH]5)cnc4n3C[C@@H]3CCO3)CC2)ncc1F` [Compound 511a, 4-[(4-chloro-2-fluorophenyl)methoxy]-5-fluoro-2-{4-[(3-{[(2S)-oxetan-2-yl]methyl}-6-[5-(trifluoromethyl)-4H-1,2,4-triazol-3-yl]-3H-imidazo[4,5-b]pyridin-2-yl)methyl]piperazin-1-yl}pyrimidine] registered an EC50 of 0.079 nM.
The compound `C[C@H]1CN(c2ccc(F)c(OCc3ccc(Cl)cc3F)c2)CCN1Cc1nc2cc(-c3nnc(C(F)(F)F)[nH]3)ncc2n1C[C@@H]1CCO1` [Compound 479a, (2S)-4-{3-[(4-chloro-2-fluorophenyl)methoxy]-4-fluorophenyl}-2-methyl-1-[(3-{[(2S)-oxetan-2-yl]methyl}-6-[5-(trifluoromethyl)-4H-1,2,4-triazol-3-yl]-3H-imidazo[4,5-c]pyridin-2-yl)methyl]piperazine] came in with an EC50 of 0.1 nM.
`CC1(c2ccc(Cl)cc2F)Oc2cccc(C3CCN(Cc4nc5cc(-c6nnn[nH]6)ncc5n4C[C@@H]4CCO4)CC3)c2O1` (stereo partly drawn) [Compound 218a, 4-[2-(4-chloro-2-fluorophenyl)-2-methyl-2H-1,3-benzodioxol-4-yl]-1-[(3-{[(2S)-oxetan-2-yl]methyl}-6-(1H-1,2,3,4-tetrazol-5-yl)-3H-imidazo[4,5-c]pyridin-2-yl)methyl]piperidine]: the response was half-maximal at 0.013 nM (EC50).
As for `CC1(c2ccc(Cl)cc2F)Oc2cccc(C3CCN(Cc4nc5cc(-c6nnc(C(F)(F)F)[nH]6)ccc5n4C[C@@H]4CCO4)CC3)c2O1` (single isomer, unassigned) [Compound 229b], the EC50 was 8.9 nM.
As to `N#Cc1ccc(COc2nc(C3CCN(Cc4nc5cc(-c6nnc(C(F)(F)F)[nH]6)ncc5n4C[C@@H]4CCO4)CC3)ncc2F)c(F)c1` [Compound 509a, 3-fluoro-4-{[(5-fluoro-2-{1-[(3-{[(2S)-oxetan-2-yl]methyl}-6-[5-(trifluoromethyl)-4H-1,2,4-triazol-3-yl]-3H-imidazo[4,5-c]pyridin-2-yl)methyl]piperidin-4-yl}pyrimidin-4-yl)oxy]methyl}benzonitrile], a half-maximal response (EC50) required 0.074 nM.
The same measure for `C[C@]1(c2ccc(Cl)cc2F)Oc2cccc(C3CCN(Cc4nc5cc(-c6nnc(C(F)(F)F)[nH]6)nnc5n4C[C@H]4CCOC4)CC3)c2O1` [Compound 475a, 4-[(2S)-2-(4-chloro-2-fluorophenyl)-2-methyl-2H-1,3-benzodioxol-4-yl]-1-[(7-{[(3R)-oxolan-3-yl]methyl}-3-[5-(trifluoromethyl)-4H-1,2,4-triazol-3-yl]-7H-imidazo[4,5-c]pyridazin-6-yl)methyl]piperidine]: 0.41 nM; for `Fc1cc(Cl)ccc1COc1nc(C2CCN(Cc3nc4cc(-c5nnc(C(F)(F)F)[nH]5)ncc4n3C[C@@H]3CCO3)CC2)ncc1F` [Compound 491a, 4-[(4-chloro-2-fluorophenyl)methoxy]-5-fluoro-2-{1-[(3-{[(2S)-oxetan-2-yl]methyl}-6-[5-(trifluoromethyl)-4H-1,2,4-triazol-3-yl]-3H-imidazo[4,5-c]pyridin-2-yl)methyl]piperidin-4-yl}pyrimidine]: 0.057 nM; for `O=C(Nc1ccc2c(c1)nc(CN1CCC(c3cccc(OCc4ccc(Cl)cc4F)n3)CC1)n2C[C@@H]1CCO1)C1CCCOC1` (single isomer, unassigned) [Compound 154b]: 0.074 nM.
`CC1(c2ccc(Cl)cc2)Oc2cccc(C3=CCN(Cc4nc5cc(-c6nnc(C(F)(F)F)[nH]6)ccc5n4C[C@@H]4CCO4)CC3)c2O1` (stereo partly drawn) [Compound 255a, 2-({4-[2-(4-chlorophenyl)-2-methyl-2H-1,3-benzodioxol-4-yl]-1,2,3,6-tetrahydropyridin-1-yl}methyl)-1-{[(2S)-oxetan-2-yl]methyl}-5-[5-(trifluoromethyl)-4H-1,2,4-triazol-3-yl]-1H-1,3-benzodiazole] registered an EC50 of 0.24 nM.
`O=c1[nH]c(-c2cnc3c(c2)nc(CN2CC=C(c4cccc(OCc5ccc(Cl)cc5F)c4)CC2)n3C[C@@H]2CCO2)no1` [Compound 320a, 3-{2-[(4-{3-[(4-chloro-2-fluorophenyl)methoxy]phenyl}-1,2,3,6-tetrahydropyridin-1-yl)methyl]-3-{[(2S)-oxetan-2-yl]methyl}-3H-imidazo[4,5-b]pyridin-6-yl}-4,5-dihydro-1,2,4-oxadiazol-5-one]: it took 6.8 nM to reach a half-maximal effect (EC50).
Turning to `C[C@]1(c2ccc(Cl)cc2F)Oc2cccc(C3CCN(Cc4nc5cc(-c6noc(=O)[nH]6)cnc5n4CC4(C#N)CC4)CC3)c2O1` [Compound 334a, 1-{[2-({4-[(2S)-2-(4-chloro-2-fluorophenyl)-2-methyl-2H-1,3-benzodioxol-4-yl]piperidin-1-yl}methyl)-6-(5-oxo-4,5-dihydro-1,2,4-oxadiazol-3-yl)-3H-imidazo[4,5-b]pyridin-3-yl]methyl}cyclopropane-1-carbonitrile], a half-maximal effect (EC50) was put at 0.25 nM.
Turning to `C[C@H]1CN(c2nc(OCc3ccc(Cl)cc3F)ccc2F)CCN1Cc1nc2cc(-c3nnc(C(F)(F)F)[nH]3)ncc2n1C[C@@H]1CCO1` [Compound 525a, (2S)-4-{6-[(4-chloro-2-fluorophenyl)methoxy]-3-fluoropyridin-2-yl}-2-methyl-1-[(3-{[(2S)-oxetan-2-yl]methyl}-6-[5-(trifluoromethyl)-4H-1,2,4-triazol-3-yl]-3H-imidazo[4,5-c]pyridin-2-yl)methyl]piperazine], a half-maximal response (EC50) required 0.026 nM.
For the compound `O=C(Nc1ccc2c(c1)nc(CN1CCC(c3cccc(OCc4ccc(Cl)cc4F)n3)CC1)n2C[C@@H]1CCO1)N1CCC(O)C1` (stereo partly drawn) [Compound 207a, N-{2-[(4-{6-[(4-chloro-2-fluorophenyl)methoxy]pyridin-2-yl}piperidin-1-yl)methyl]-1-{[(2S)-oxetan-2-yl]methyl}-1H-1,3-benzodiazol-5-yl}-3-hydroxypyrrolidine-1-carboxamide], it took 0.39 nM to reach a half-maximal effect (EC50).
Compound `N#Cc1ccc(COc2cccc(C3=CCN(Cc4nc5cc(-c6nnc(C(F)(F)F)[nH]6)cnc5n4C[C@@H]4CCO4)CC3)c2)c(F)c1` [Compound 317a, 3-fluoro-4-[(3-{1-[(3-{[(2S)-oxetan-2-yl]methyl}-6-[5-(trifluoromethyl)-4H-1,2,4-triazol-3-yl]-3H-imidazo[4,5-b]pyridin-2-yl)methyl]-1,2,3,6-tetrahydropyridin-4-yl}phenoxy)methyl]benzonitrile] came in with an EC50 of 0.11 nM.
In turn, `N#Cc1ccc(COc2cc(C3=CCN(Cc4nc5cc(-c6nnc(C(F)(F)F)[nH]6)cnc5n4C[C@@H]4CCO4)CC3)ccc2F)c(F)c1` [Compound 296a, 3-fluoro-4-[(2-fluoro-5-{1-[(3-{[(2S)-oxetan-2-yl]methyl}-6-[5-(trifluoromethyl)-4H-1,2,4-triazol-3-yl]-3H-imidazo[4,5-b]pyridin-2-yl)methyl]-1,2,3,6-tetrahydropyridin-4-yl}phenoxy)methyl]benzonitrile] displayed an EC50 of 0.48 nM.
The compound `CC1(C(=O)Nc2ccc3c(c2)nc(CN2CCC(c4cccc(OCc5ccc(Cl)cc5F)n4)CC2)n3C[C@@H]2CCO2)CCCCO1` (stereo partly drawn) [Compound 183a, N-{2-[(4-{6-[(4-chloro-2-fluorophenyl)methoxy]pyridin-2-yl}piperidin-1-yl)methyl]-1-{[(2S)-oxetan-2-yl]methyl}-1H-1,3-benzodiazol-5-yl}-2-methyloxane-2-carboxamide] had a 50% effective concentration (EC50) of 4 nM.
Compound `Fc1cc(Cl)ccc1COc1cccc(C2=CCN(Cc3nc4cc(-c5nnc(C(F)(F)F)[nH]5)cnc4n3C[C@@H]3CCO3)CC2)c1` [Compound 319a, 4-{3-[(4-chloro-2-fluorophenyl)methoxy]phenyl}-1-[(3-{[(2S)-oxetan-2-yl]methyl}-6-[5-(trifluoromethyl)-4H-1,2,4-triazol-3-yl]-3H-imidazo[4,5-b]pyridin-2-yl)methyl]-1,2,3,6-tetrahydropyridine] returned an EC50 of 0.36 nM.
`Cc1nnc(-c2ccc3c(c2)nc(CN2CCC(c4cccc5c4O[C@@](C)(c4ccc(Cl)cc4F)O5)CC2)n3C[C@@H]2CCO2)[nH]1` [Compound 406a, 2-({4-[(2S)-2-(4-chloro-2-fluorophenyl)-2-methyl-2H-1,3-benzodioxol-4-yl]piperidin-1-yl}methyl)-5-(5-methyl-4H-1,2,4-triazol-3-yl)-1-{[(2S)-oxetan-2-yl]methyl}-1H-1,3-benzodiazole] displayed an EC50 of 0.018 nM.
